From patent publication US7267821B2, “Binding member which binds to both Lewisy and Lewisb haptens, and its use for treating cancer” (Scancell Limited, priority 2001, dated 2007) come the findings set out here.

Holding throughout (type): cell-based
The test system of one assay is C170 cells. Briefly: 5FU and SC101/29, crystal violet cell number after 5 days. Particulars: 5 Fluorouracil 0.25 μg/ml alone. Here is the method: 3×10^3 C170 cells were plated into microtitre plates and left overnight to adhere. 5FU was added to a final concentrations of 0.25 and 0.5 μg/ml .SC101/29 antibody was also added at concentration of 1-50 μg/ml. […] However, in combination with a non-toxic dose of 5 Fluorouracil (0.25 μg/ml) there was a 70% reduction in cell growth.

Another assay relates to Colorectal C170 cells. Kind of assay: Cyto Death ELISA for fragmented DNA, with or without cisplatin. Particulars: cisplatin at 3 μg/ml alone. The procedure: The cultures were then washed once and incubated in goat anti-mouse antibody at 100 μg/ml for 30 minutes at room temperature. The cultures were then re-washed and left over night in culture medium with or without cisplatin. The following day the cultures were washed, lysed and tested for the presence of fragmented DNA by a Cyto Death ELISA (Roche). The results were recorded by optical Density measurements at 405 nm.
In general terms: In an ELISA, binding on a coated surface is turned into a signal by an enzyme label.

The subject of assay [1] is C170 colorectal tumour cells. Kind of assay: Cisplatin then SC101/29, crystal violet viable cells after 4 days. Details: dose or concentration left out as unconfirmed. The following applies: cisplatin alone. The procedure:
[…] The cells were left for 4 days when the number of viable cells was determined by crystal violet staining and optical density reading at 550 nm. […] The combination of drug and antibody are synergistic, inducing a 50% reduction in cell growth.

Turning to `O=c1[nH]cc(F)c(=O)[nH]1` [5 Fluorouracil], the “toxicity of dose to C170 cells” value in the assay on C170 cells was “non-toxic”.

As for `N.N.[Cl][Pt][Cl]` [cisplatin], in the assay with Colorectal C170 cells, the “apoptosis (fragmented DNA)” value was “induces apoptosis”. Further, the “inhibition of C170 cell growth” value in assay [1] is recorded as 10%.
